Converted amounts (≈) assume the structure as drawn. Structures can show the parent of a compound that is named as a salt. Where two headings read alike, the source gives them in different places.
How the values were obtained:
S. aureus 133 [1] = assay: Minimum inhibitory concentration (MIC), S. aureus 133; type: cell-based
Method: (§1) Determination of the Minimum Inhibitory Concentration (MIC)
(§2) The minimum inhibitory concentration (MIC) is the minimum concentration of an antibiotic with which the growth of a test microbe is inhibited over 18-24 h. The inhibitor concentration can in these cases be determined by standard microbiological methods (see, for example, The National Committee for Clinical Laboratory Standards. Methods for dilution antimicrobial susceptibility tests for bacteria that grow aerobically; approved standard-fifth edition. NCCLS document M7-A5 [ISBN 1-56238-394-9]. NCCLS, 940 West Valley Road, Suite 1400, Wayne, Pa. 19087-1898 USA, 2000). The MIC of the compounds of the invention is determined in the liquid dilution test on the 96-well microtitre plate scale. The bacterial microbes are cultivated in a minimal medium (18.5 mM Na2HPO4, 5.7 mM KH2PO4, 9.3 mM NH4Cl, 2.8 mM MgSO4, 17.1 mM NaCl, 0.033 μg/ml of thiamine hydrochloride, 1.2 μg/ml of nicotinic acid, 0.003 μg/ml of biotin, 1% glucose, 25 μg/ml of each proteinogenic amino acid with the exception of phenylalanine; [H.-P. Kroll; unpublished]) with addition of 0.4% BH broth (test medium). In the case of Enterococcus faecium L4001, heat-inactivated fetal calf serum (FCS; GibcoBRL, Germany) is added to the test medium in a final concentration of 10%. Overnight cultures of the test microbes are diluted to an OD578 of 0.001 (to 0.01 in the case of enterococci) in fresh test medium, and incubated 1:1 with dilutions of the test substances (1:2 dilution steps) in test medium (200 μl final volume). The cultures are incubated at 37° C. for 18-24 hours; enterococci in the presence of 5% CO2
(§3) The lowest substance concentration in each case at which no visible bacterial growth occurs any more is defined as the MIC.
(§4) Alternative Method for Determining the Minimum Inhibitory Concentration (MIC)
(§5) The minimum inhibitory concentration (MIC) is the minimum concentration of an antibiotic with which the growth of a test microbe is inhibited over 18-24 h. The inhibitor concentration can in these cases be determined by standard microbiological methods with modified medium in an agar dilution test (see, for example, The National Committee for Clinical Laboratory Standards. Methods for dilution antimicrobial susceptibility tests for bacteria that grow aerobically; approved standard-fifth edition. NCCLS document M7-A5 [ISBN 1-56238-394-9]. NCCLS, 940 West Valley Road, Suite 1400, Wayne, Pa. 19087-1898 USA, 2000). The bacterial microbes are cultivated on 1.5% agar plates which contain 20% defibrinated horse blood. The test microbes, which are incubated overnight on Columbia blood agar plates (Becton-Dickinson), are diluted in PBS, adjusted to a microbe count of about 5×10^5 microbes/ml and placed dropwise (1-3 μl) on test plates. The test substances comprise different dilutions of the test substances (1:2 dilution steps). The cultures are incubated at 37° C. in the presence of 5% CO2 for 18-24 hours.
(§6) The lowest substance concentration in each case at which no visible bacterial growth occurred any more is defined as the MIC and is reported in μg/ml.

S. aureus T17 = assay: Minimum inhibitory concentration (MIC), biphenomycin-resistant S. aureus T17; type: cell-based; settings: Staphylococcus aureus; biphenomycin-resistant S. aureus T17; read-out: MIC S. aureus T17
Method: as §1, §2, §3, §4, §5, §6
The S. aureus strain T17 is isolated in vivo. CFW1 mice are infected intraperitoneally with 4×10^7 S. aureus 133 cells per mouse. 0.5 h after the infection, the animals are treated intravenously with 50 mg/kg biphenomycin B. The kidneys are removed from the surviving animals on day 3 after the infection. After homogenization of the organs, the homogenates are plated out as described for RN4220Bi^R on antibiotic-free and antibiotic-containing agar plates and incubated at 37° C. overnight. […] About 20 of these colonies are tested for the biphenomycin B MIC, and a colony with a MIC of >50 μM is selected for further cultivation, and the strain is referred to as T17.

[2] = system: Enterococcus faecium L4001; assay: Minimum inhibitory concentration (MIC), E. faecium L4001; type: cell-based; settings: Enterococcus faecium
Method: as §1, §2, §3, §4, §5, §6

[3] = biological target: S. aureus 133 Translation; assay: S. aureus in vitro transcription-translation assay (firefly luciferase, S30 extract); type: biochemical; settings: 50% inhibition of the translation of firefly luciferase
Text: In Vitro Transcription-Translation with S. aureus Extracts
Construction of an S. aureus luciferase Reporter Plasmid
In order to construct a reporter plasmid which can be used in an in vitro transcription-translation assay from S. aureus the plasmid pBESTluc (Promega Corporation, USA) is used. The E. coli tac promoter present in this plasmid in front of the firefly luciferase is replaced with the capA1 promoter with appropriate Shine-Dalgarno sequence from S. aureus. The primers CAPFor 5′-CGGCCAAGCTTACTC-[…] […]-3′ and CAPRev 5′-[…]-3′ are used for this. The primer CAPFor contains the capA1 promoter, the ribosome binding site and the 5′ region of the luciferase gene. After PCR using pBESTluc as template it is possible to isolate a PCR product which contains the firefly luciferase gene with the fused capA1 promoter. This is, after restriction with ClaI and HindIII, ligated into the vector pBESTluc which has likewise been digested with ClaI and HindIII. The resulting plasmid p1a can be replicated in E. coli and can be used as template in the S. aureus in vitro transcription-translation test.
Preparation of S30 Extracts from S. aureus
Six litres of BHI medium are inoculated with a 250 ml overnight culture of an S. aureus strain and allowed to grow at 37° C. until the OD600 nm is 2-4. The cells are harvested by centrifugation and washed in 500 ml of cold buffer A (10 mM Tris acetate, pH 8.0, 14 mM magnesium acetate, 1 mM DTT, 1 M KCl). After renewed centrifugation, the cells are washed in 250 ml of cold buffer A with 50 mM KCl, and the resulting pellets are frozen at −20° C. for 60 min. The pellets are thawed on ice in 30 to 60 min and taken up to a total volume of 99 ml in buffer B (10 mM Tris acetate, pH 8.0, 20 mM magnesium acetate, 1 mM DTT, 50 mM KCl). 1.5 ml portions of lysostaphin (0.8 mg/ml) in buffer B are introduced into 3 precooled centrifuge cups and mixed with 33 ml of the cell suspension each. The samples are incubated at 37° C., shaking occasionally, for 45 to 60 min, before 150 μl of a 0.5 M DTT solution are added. The lysed cells are centrifuged at 30 000×g and 4° C. for 30 min. The cell pellet is taken up in buffer B and then centrifuged again under the same conditions, and the collected supernatants are combined. The supernatants are centrifuged again under the same conditions, and 0.25 volumes of buffer C (670 mM Tris acetate, pH 8.0, 20 mM magnesium acetate, 7 mM Na3 phosphoenolpyruvate, 7 mM DTT, 5.5 mM ATP, 70 μM amino acids (complete from Promega), 75 μg of pyruvate kinase (Sigma, Germany))/ml are added to the upper ⅔ of the supernatant. The samples are incubated at 37° C. for 30 min. The supernatants are dialysed against 2 l of dialysis buffer (10 mM Tris acetate, pH 8.0, 14 mM magnesium acetate, 1 mM DTT, 60 mM potassium acetate) in a dialysis tube with a 3500 Da cut-off with one buffer change at 4° C. overnight. The dialysate is concentrated to a protein concentration of about 10 mg/ml by covering the dialysis tube with cold PEG 8000 powder (Sigma, Germany) at 4° C. The S30 extracts can be stored in aliquots at −70° C.
Determination of the IC50 in the S. aureus In Vitro Transcription-Translation Assay
The inhibition of protein biosynthesis of the compounds can be shown in an in vitro transcription-translation assay. The assay is based on the cell-free transcription and translation of firefly luciferase using the reporter plasmid p1a as template and cell-free S30 extracts obtained from S. aureus. The activity of the resulting luciferase can be detected by luminescence measurement.
The amount of S30 extract or plasmid p1a to be employed must be tested anew for each preparation in order to ensure an optimal concentration in the assay. 3 μl of the substance to be tested, dissolved in 5% DMSO, are provided in an MTP. Then […] of a suitably concentrated plasmid solution p1a are added. […]

S. aureus 133 [4] = assay: Systemic infection with S. aureus 133 (mouse sepsis model); type: in vivo, mouse (female CFW1); settings: i.p. infection, i.v. therapy 30 minutes after infection, survival recorded for 6 days
Method: Systemic Infection with S. aureus 133
The suitability of the compounds of the invention for the treatment of bacterial infections can be shown in various animal models. For this purpose, the animals are generally infected with a suitable virulent microbe and then treated with the compound to be tested, which is present in a formulation which is adapted to the particular therapy model.
For this purpose, S. aureus 133 cells are cultured overnight in BH broth (Oxoid, Germany). The overnight culture was diluted 1:100 in fresh BH broth and expanded for 3 hours. The bacteria which are in the logarithmic phase of growth are centrifuged and washed twice with buffered physiological saline solution. A cell suspension in saline solution with an extinction of 50 units is then adjusted in a photometer (Dr Lange LP 2W). After a dilution step (1:15), this suspension is mixed 1:1 with a 10% mucine suspension. 0.2 ml of this infection solution is administered i.p. per 20 g of mouse. This corresponds to a cell count of about 1-2×10^6 microbes/mouse. The i.v. therapy takes place 30 minutes after the infection. Female CFW1 mice are used for the infection experiment. The survival of the animals is recorded for 6 days. The animal model is adjusted so that untreated animals die within 24 h after the infection.

[5] = Staphylococcus aureus, 133, read-out: MIC S. aureus 133
[6] = L4001, read-out: MIC E. faecium L4001
[7] = Staphylococcus aureus, 133; read-out: MIC S. aureus 133
[8] = E. faecium L4001, test medium with 10% FCS, read-out: MIC E. faecium L4001

SMILES | MIC (S. aureus 133 [1]; [5]) | MIC (S. aureus T17) | MIC [2, 6] | IC50 [3] | ED100 (therapeutic effect) (S. aureus 133 [4]) | MIC (S. aureus 133 [1]; [7]) | MIC [2, 8]
NCCC[C@@H]1NC(=O)[C@@H](N)Cc2cc(ccc2O)-c2ccc(O)c(c2)C[C@@H](C(=O)N2CCC[C@H]2C(=O)N[C@@H](CCCN)C(=O)NCCN)NC1=O [Example 1, 1-{[(8S,11S,14S)-14-Amino-11-(3-aminopropyl)-5,17-dihydroxy-10,13-dioxo-9,12-diazatricyclo[14.3.1.1^2,6]henicosa-1(20),2(21),3,5,16,18-hexaen-8-yl]carbonyl}-L-prolyl-N-(2-aminoethyl)-L-ornithinamide tetrahydrochloride] | 1 µg/mL | 4 µg/mL | 2 µg/mL | 700 nM |  |  | 
NCCC[C@@H]1NC(=O)[C@@H](N)Cc2cc(ccc2O)-c2ccc(O)c(c2)C[C@@H](C(=O)N2CCC[C@H]2C(=O)N[C@@H](CCCN)C(=O)NCCN)NC1=O.O=C(O)C(F)(F)F.O=C(O)C(F)(F)F.O=C(O)C(F)(F)F.O=C(O)C(F)(F)F [Example 2, 1-{[(8S,11S,14S)-14-Amino-11-(3-aminopropyl)-5,17-dihydroxy-10,13-dioxo-9,12-diazatricyclo[14.3.1.1^2,6]henicosa-1(20),2(21),3,5,16,18-hexaen-8-yl]carbonyl}-L-prolyl-N-(2-aminoethyl)-L-ornithinamide tetra(hydrotrifluoroacetate)] |  |  |  |  | 1.25 mg/kg |  | 
CNCCN(CCN)C(=O)[C@@H]1Cc2cc(ccc2O)-c2ccc(O)c(c2)C[C@H](N)C(=O)N[C@@H](CCCN)C(=O)N1 [Example 3, (8S,11S,14S)-14-Amino-N-(2-aminoethyl)-11-(3-aminopropyl)-5,17-dihydroxy-N-[2-(methylamino)ethyl]-10,13-dioxo-9,12-diazatricyclo[14.3.1.1^2,6]henicosa-1(20),2(21),3,5,16,18-hexaene-8-carboxamide tetrahydrochloride] | 2 µg/mL | 4 µg/mL | 8 µg/mL | 800 nM |  |  | 
NCCC[C@@H]1NC(=O)[C@@H](N)Cc2cc(ccc2O)-c2ccc(O)c(c2)C[C@@H](C(=O)N(CCN)CCO)NC1=O [Example 6] |  | 4 µg/mL (≈ 7.37 µM) |  | 700 nM |  | 2 µg/mL (≈ 3.69 µM) | 4 µg/mL (≈ 7.37 µM)
NCCC[C@@H]1NC(=O)[C@@H](N)Cc2cc(ccc2O)-c2ccc(O)c(c2)C[C@@H](C(=O)N(CCN)CC(O)CN)NC1=O (stereo partly drawn) [Example 8] |  | 4 µg/mL (≈ 7 µM) |  | 250 nM |  | 1 µg/mL (≈ 1.75 µM) | 16 µg/mL (≈ 28 µM)
NCCC[C@@H]1NC(=O)[C@@H](N)Cc2cc(ccc2O)-c2ccc(O)c(c2)C[C@@H](C(=O)N(CCN)CC2CCCCN2)NC1=O (stereo partly drawn) [Example 9] |  | 2 µg/mL (≈ 3.36 µM) |  | 330 nM |  | 4 µg/mL (≈ 6.71 µM) | 32 µg/mL (≈ 53.7 µM)

From patent US20080300231A1, “Antibacterial amide macrocycles VI” (priority 2005, published 2008)
